Where two headings read alike, the source gives them in different places.
Tests used:
[1] = system: self-replicating, subgenomic HCV replicon in Huh-7 cells; assay: HCV replicon assay; assay type: cell-based
[2] = biological target: human mitochondrial RNA polymerase (Homo sapiens, UniProt O00411); assay: DdRp assay: incorporation of nucleotides by human mitochondrial RNA polymerase (HMRP); details: single turnover, 100 μM NTP, 30° C., 1 minute; product band on gel
[3] = biological target: NS5B570-Con1 (Delta-21) (Hepatitis C virus genotype 1b, UniProt Q9WMX2); assay: biochemical; assay type: biochemical, HCV (Con-1 strain); details: 2 h at 37° C., mean of several independent experiments
[4] = system: mitochondrial protein synthesis (COX I / SDH A) in HepG2 cells
[5] = Hepatitis C virus, Huh-7 HCV replicon cells, luciferase reporter, 72 h, read-out: EC50
[6] = IC50, 50 nM NS5B570-Con1, cIRES RNA template

Sequence of human mitochondrial RNA polymerase (O00411 42-1230): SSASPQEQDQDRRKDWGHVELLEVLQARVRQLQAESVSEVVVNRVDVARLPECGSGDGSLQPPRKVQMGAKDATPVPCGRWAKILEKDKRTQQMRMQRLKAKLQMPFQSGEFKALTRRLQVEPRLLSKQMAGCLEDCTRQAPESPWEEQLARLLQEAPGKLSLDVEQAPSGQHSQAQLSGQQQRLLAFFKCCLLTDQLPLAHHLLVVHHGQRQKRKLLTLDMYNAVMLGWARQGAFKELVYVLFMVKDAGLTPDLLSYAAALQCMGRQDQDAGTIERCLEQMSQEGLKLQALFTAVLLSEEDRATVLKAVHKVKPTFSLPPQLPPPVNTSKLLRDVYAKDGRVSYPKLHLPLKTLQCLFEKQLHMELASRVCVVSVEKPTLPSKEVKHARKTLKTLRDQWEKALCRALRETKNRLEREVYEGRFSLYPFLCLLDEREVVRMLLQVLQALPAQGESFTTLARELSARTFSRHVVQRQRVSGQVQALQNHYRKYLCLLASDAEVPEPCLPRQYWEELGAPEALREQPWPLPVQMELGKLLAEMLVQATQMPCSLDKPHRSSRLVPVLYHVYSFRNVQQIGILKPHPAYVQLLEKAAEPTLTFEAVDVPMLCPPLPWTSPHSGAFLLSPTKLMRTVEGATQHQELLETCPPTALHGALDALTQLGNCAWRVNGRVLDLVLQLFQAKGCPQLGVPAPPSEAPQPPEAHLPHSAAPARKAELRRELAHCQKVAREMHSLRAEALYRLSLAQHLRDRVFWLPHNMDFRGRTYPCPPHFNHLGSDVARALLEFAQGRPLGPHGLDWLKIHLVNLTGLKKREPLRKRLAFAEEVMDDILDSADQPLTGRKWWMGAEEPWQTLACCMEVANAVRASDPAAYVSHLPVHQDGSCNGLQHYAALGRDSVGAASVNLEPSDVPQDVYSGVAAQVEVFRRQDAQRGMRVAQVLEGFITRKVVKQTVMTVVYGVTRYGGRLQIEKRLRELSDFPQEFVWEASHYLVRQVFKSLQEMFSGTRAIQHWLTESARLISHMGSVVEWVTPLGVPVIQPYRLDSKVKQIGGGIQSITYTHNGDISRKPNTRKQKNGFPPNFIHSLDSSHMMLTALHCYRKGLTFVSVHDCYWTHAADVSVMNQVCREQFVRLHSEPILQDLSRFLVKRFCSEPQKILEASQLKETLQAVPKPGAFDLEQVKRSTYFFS

Structure (SMILES): CCOc1nc(N)nc2c1ncn2[C@@H]1O[C@](F)(CO[P@@](=O)(N[C@@H](C)C(=O)OC2CCCCC2)Oc2ccccc2)[C@@H](O)[C@@]1(C)F [Compound 33]
- EC50 ([1]; Hepatitis C virus, Huh-7, 72 h): < 1000 nM

Structure (SMILES): C#C[C@]1(O)[C@H](n2ccc(=O)[nH]c2=O)O[C@](F)(COP(=O)(OCOC(=O)OC(C)C)OCOC(=O)OC(C)C)[C@H]1O [Compound 51]
- EC50 [1, 5]: 1000 to 10000 nM

Structure (SMILES): Nc1ncnc2c1ncn2[C@@H]1O[C@H](COP(=O)(O)OP(=O)(O)OP(=O)(O)O)[C@@H](O)[C@H]1O [ATP]
- incorporation by HMRP, template for GTP analogs (FIG. 11) [2]: poor substrate for incorporation

Structure (SMILES): C#C[C@]1(F)[C@H](n2cnc3c(=O)[nH]c(N)nc32)O[C@](F)(COP(=O)(O)OP(=O)(O)OP(=O)(O)O)[C@H]1O [Compound 69]
- IC50 [3, 6]: < 1000 nM

Structure (SMILES): CC(C)(C)C(=O)OCOP(=O)(OCOC(=O)C(C)(C)C)OC[C@@]1(F)O[C@@H](n2ccc(=O)[nH]c2=O)[C@](C)(O)[C@@H]1O [Compound 55]
- EC50 [1, 5]: < 1000 nM

Structure (SMILES): C[C@]1(F)[C@H](n2ccc(N)nc2=O)O[C@](F)(COP(=O)(O)OP(=O)(O)OP(=O)(O)O)[C@H]1O [Compound 28]
- EC50 [1, 5]: < 1000 nM

Structure (SMILES): CCOc1nc(N)nc2c1ncn2[C@@H]1O[C@]2(F)CO[P@@](=O)(OC(C)C)O[C@H]2[C@@]1(C)F [Compound 43]
- EC50 [1, 5]: < 1000 nM

Structure (SMILES): CCOc1nc(N)nc2c1ncn2[C@@H]1O[C@](F)(COP(=O)(OCOC(=O)OC(C)C)OCOC(=O)OC(C)C)[C@@H](O)[C@@]1(C)F [Compound 53]
- EC50 [1, 5]: < 1000 nM

Structure (SMILES): CC(C)(C)C(=O)SCCOP(=O)(OCCSC(=O)C(C)(C)C)OC[C@@]1(F)O[C@@H](n2ccc(=O)[nH]c2=O)[C@](C)(O)[C@@H]1O [Compound 58]
- EC50 ([1]; Hepatitis C virus, Huh-7, 72 h): < 1000 nM

Structure (SMILES): CC(C)OC(=O)OCOP(=O)(OCOC(=O)OC(C)C)OC[C@@]1(F)O[C@@H](n2cnc3c(=O)[nH]c(N)nc32)[C@](C)(O)[C@@H]1O [Compound 49]
- EC50 [1, 5]: < 1000 nM

Structure (SMILES): C[C@]1(F)[C@H](n2cnc3c(=O)[nH]c(N)nc32)O[C@](F)(CO)[C@H]1O [Compound 29]
- EC50 [1, 5]: 10000 to 100000 nM

Structure (SMILES): CCOc1nc(N)nc2c1ncn2[C@@H]1O[C@](F)(COP(=O)(OCOC(=O)OC(C)C)OCOC(=O)OC(C)C)[C@@H](O)[C@@]1(C)O [Compound 52]
- EC50 [1, 5]: < 1000 nM

Structure (SMILES): C[C@]1(F)[C@H](n2ccc(N)nc2=O)O[C@](F)(CO)[C@H]1O [Compound 27]
- EC50 [1, 5]: 10000 to 100000 nM

Structure (SMILES): CC(C)(C)C(=O)SCCOCCOP(=O)(OCCOCCSC(=O)C(C)(C)C)OC[C@@]1(F)O[C@@H](n2ccc(=O)[nH]c2=O)[C@](C)(O)[C@@H]1O [Compound 59]
- EC50 ([1]; Hepatitis C virus, Huh-7, 72 h): 10000 to 100000 nM

Structure (SMILES): CC(C)OC(=O)[C@H](C)NP(=O)(OC[C@@]1(F)O[C@@H](n2ccc(=O)[nH]c2=O)[C@](C)(F)[C@@H]1O)Oc1ccccc1 (some centres unmarked) [Compound 31]
- EC50 ([1]; Hepatitis C virus, Huh-7, 72 h): < 1000 nM

Structure (SMILES): C[C@]1(O)[C@H](n2ccc(=O)[nH]c2=O)O[C@](F)(COP(O)(=S)OP(=O)(O)OP(=O)(O)O)[C@H]1O (single isomer, unassigned) [Compound 7b]
- IC50 [3, 6]: 1000 to 10000 nM

Structure (SMILES): COc1nc(N)nc2c1ncn2[C@@H]1O[C@H](COP(=O)(N[C@@H](C)C(=O)OCC(C)(C)C)Oc2cccc3ccccc23)[C@@H](O)[C@@]1(C)O (some centres unmarked) [INX-08189/BMS-986094]
- inhibition of mitochondrial protein synthesis (COX I/SDH A ratio) [4]: strongly inhibit mitochondrial protein synthesis

Structure (SMILES): C[C@@]1(F)[C@H](O)[C@@H](COP(=O)(O)OP(=O)(O)OP(=O)(O)O)O[C@H]1n1ccc(=O)[nH]c1=O [2′-Me-2′-F-UTP]
- incorporation by HMRP, template for UTP analogs (FIG. 10) [2]: not efficient substrates for incorporation by HMRP

Structure (SMILES): Nc1ccn([C@H]2CC[C@@H](CO)O2)c(=O)n1 [ddC]
- inhibition of mitochondrial protein synthesis (COX I/SDH A ratio) [4]: strongly inhibit mitochondrial protein synthesis

Structure (SMILES): CCOc1nc(N)nc2c1ncn2[C@@H]1O[C@](F)(COP(=O)(N[C@@H](C)C(=O)OCC(C)C)Oc2ccccc2)[C@@H](O)[C@@]1(C)F (some centres unmarked) [Compound 86]
- EC50 ([1]; Hepatitis C virus, Huh-7, 72 h): < 1000 nM

Structure (SMILES): C[C@]1(Cl)[C@H](n2ccc(=O)[nH]c2=O)O[C@](F)(COP(=O)(O)OP(=O)(O)OP(=O)(O)O)[C@H]1O [Compound 46]
- IC50 ([3]; 50 nM NS5B570-Con1, cIRES RNA template, read-out: IC50): < 1000 nM

Structure (SMILES): C[C@H](NP(=O)(OC[C@@]1(F)O[C@@H](n2ccc(=O)[nH]c2=O)[C@](C)(O)C1O)Oc1ccccc1)C(=O)OCC(C)(C)C (some centres unmarked) [Compound 5]
- EC50 ([1]; Hepatitis C virus, Huh-7, 72 h): < 1000 nM

Structure (SMILES): CCOc1nc(N)nc2c1ncn2[C@@H]1O[C@]2(F)CO[P@@](=O)(OC(C)C)O[C@H]2[C@@]1(C)O [Compound 37]
- EC50 [1, 5]: < 1000 nM

Structure (SMILES): CCOc1nc(N)nc2c1ncn2[C@@H]1O[C@]2(F)CO[P@](=O)(OC(C)C)O[C@H]2[C@@]1(C)O (single isomer, unassigned) [Compound 36]
- EC50 [1, 5]: < 1000 nM

Structure (SMILES): C#C[C@]1(F)[C@H](n2cnc3c(=O)[nH]c(N)nc32)O[C@](F)(COP(=O)(O)OP(=O)(O)OP(=O)(O)O)[C@H]1O [Compound 44]
- IC50 ([3]; 50 nM NS5B570-Con1, cIRES RNA template): < 1000 nM

Structure (SMILES): Cc1cn([C@H]2C=C[C@@H](CO)O2)c(=O)[nH]c1=O [d4T]
- inhibition of mitochondrial protein synthesis (COX I/SDH A ratio) [4]: not to inhibit mitochondrial protein synthesis at concentrations up to 100 μM

Structure (SMILES): CCOc1nc(N)nc2c1ncn2[C@@H]1O[C@]2(F)CO[P@](=O)(OC(C)C)O[C@H]2[C@@]1(C)F [Compound 42]
- EC50 ([1]; read-out: EC50): < 1000 nM

Structure (SMILES): C#C[C@]1(O)[C@H](n2cnc3c(OCC)nc(N)nc32)O[C@](F)(CO[P@](=O)(N[C@@H](C)C(=O)OC2CCCCC2)Oc2ccccc2)[C@H]1O [Compound 34]
- EC50 ([1]; Hepatitis C virus, Huh-7, 72 h): < 1000 nM

Structure (SMILES): C#C[C@]1(O)[C@H](n2cnc3c(=O)[nH]c(N)nc32)O[C@](F)(COP(=O)(O)OP(=O)(O)OP(=O)(O)O)[C@H]1O [Compound 9]
- IC50 [3, 6]: < 1000 nM

Structure (SMILES): O=c1ccn([C@@H]2O[C@](F)(COP(=O)(O)OP(=O)(O)OP(=O)(O)O)[C@@H](O)[C@]2(O)CF)c(=O)[nH]1 [Compound 76]
- IC50 [3, 6]: < 1000 nM

Structure (SMILES): CCOc1nc(N)nc2c1ncn2[C@@H]1O[C@](F)(COP(=O)(N[C@@H](C)C(=O)OC(C)C)Oc2cccc3ccccc23)[C@@H](O)[C@@]1(C)F (some centres unmarked) [Compound 83]
- EC50 ([1]; Hepatitis C virus, Huh-7, 72 h): < 1000 nM

Structure (SMILES): C#C[C@]1(O)[C@H](n2cnc3c(OCC)nc(N)nc32)O[C@](F)(CO[P@@](=O)(N[C@@H](C)C(=O)OC2CCCCC2)Oc2ccccc2)[C@H]1O [Compound 35]
- EC50 ([1]; Hepatitis C virus, Huh-7, 72 h): < 1000 nM

Structure (SMILES): C#C[C@]1(F)[C@H](n2cnc3c(OCC)nc(N)nc32)O[C@](F)(COP(=O)(N[C@@H](C)C(=O)OC2CCCCC2)Oc2ccccc2)[C@H]1O (some centres unmarked) [Compound 40]
- EC50 ([1]; Hepatitis C virus, Huh-7, 72 h): 1000 to 10000 nM

Structure (SMILES): C=C[C@]1(O)[C@H](n2ccc(=O)[nH]c2=O)O[C@](F)(CO[P@@](=O)(N[C@@H](C)C(=O)OC(C)C)Oc2ccccc2)[C@H]1O [Compound 77]
- EC50 ([1]; Hepatitis C virus, Huh-7, 72 h): 1000 to 10000 nM

Structure (SMILES): CCOc1nc(N)nc2c1ncn2[C@@H]1O[C@](F)(CO[P@](=O)(N[C@@H](C)C(=O)OC2CCCCC2)Oc2ccccc2)[C@@H](O)[C@@]1(C)F [Compound 32]
- EC50 ([1]; Hepatitis C virus, Huh-7, 72 h): < 1000 nM

Structure (SMILES): C#C[C@]1(F)[C@H](n2cnc3c(OCC)nc(N)nc32)O[C@](F)(COP(=O)(N[C@@H](C)C(=O)OC2CCCCC2)Oc2ccccc2)[C@H]1O (single isomer, unassigned) [Compound 41]
- EC50 ([1]; Hepatitis C virus, Huh-7, 72 h): 1000 to 10000 nM

Structure (SMILES): CCOc1nc(N)nc2c1ncn2[C@@H]1O[C@](F)(COP(=O)(N[C@@H](C)C(=O)OCC(C)C)Oc2cccc3ccccc23)[C@@H](O)[C@@]1(C)F (some centres unmarked) [Compound 84]
- EC50 ([1]; Hepatitis C virus, Huh-7, 72 h): < 1000 nM

Structure (SMILES): CCOc1nc(N)nc2c1ncn2[C@@H]1O[C@](F)(COP(=O)(N[C@@H](C)C(=O)OC(C)C)Oc2ccccc2)[C@@H](O)[C@@]1(C)F (some centres unmarked) [Compound 85]
- EC50 ([1]; Hepatitis C virus, Huh-7, 72 h): < 1000 nM

Structure (SMILES): C[C@]1(O)[C@H](n2ccc(=O)[nH]c2=O)O[C@](F)(COP(O)(=S)OP(=O)(O)OP(=O)(O)O)[C@H]1O (single isomer, unassigned) [Compound 7a]
- IC50 [3, 6]: < 1000 nM

Structure (SMILES): CC(C)OC(=O)OCOP(=O)(OCOC(=O)OC(C)C)OC[C@@]1(F)O[C@@H](n2ccc(=O)[nH]c2=O)[C@](C)(O)[C@@H]1O [Compound 14]
- EC50 [1, 5]: < 1000 nM

Structure (SMILES): C[C@H](NP(=O)(OC[C@@]1(F)O[C@@H](n2ccc(=O)[nH]c2=O)[C@](C)(F)[C@@H]1O)Oc1ccccc1)C(=O)OC1CCCCC1 (some centres unmarked) [Compound 30]
- EC50 ([1]; Hepatitis C virus, Huh-7, 72 h): < 1000 nM

From patent US10144755B2, “Substituted nucleosides, nucleotides and analogs thereof” (ALIOS BIOPHARMA, INC., priority 2012, dated 2018)
